Like-named read-outs stand apart in the source and are kept apart here. Starred links: 1 amine or outer side, 2 acyl side, 3 side chain; linkers in the order of their positions; H or OH if unused. Non-standard residues stand in square brackets, D forms with d. Residues, ends and D or L forms follow the SMILES beside them. Groups on a side chain read outwards from the residue. *: point of attachment. X1 = NC(=O)[C@H](CCCCNC(=O)COCCOCCNC(=O)CCC(=O)NCCOCCOCCCCCCCl)N*; Ala(piperidin-4-yl) = O=C([C@H](CC1CCN([*:3])CC1)N[*:1])[*:2]; Phe(4-guanidino) = N=C(N)Nc1ccc(C[C@H](N)C(=O)O)cc1; 2Nal = N[C@@H](Cc1ccc2ccccc2c1)C(=O)O; Lys(Me2) = CN(C)CCCC[C@H](N)C(=O)O; hArg = N=C(N)NCCCC[C@H](N)C(=O)O; Cit = NC(=O)NCCC[C@H](N)C(=O)O; Agb = N=C(N)NCC[C@H](N)C(=O)O; Agp = N=C(N)NC[C@H](N)C(=O)O; PEG4 = NCCOCCOCCOCCOCCC(=O)O
How the values were obtained:
[1] = test system: HaloTag-ActA fusion protein; experiment: Chloroalkane penetration assay (HaloTag); format: cell-based; settings: HEK293-HaloTag cells, chloroalkane-tagged peptide, 24 h with FBS, then 5 μM TMR-ct
Text: Assay design. HEK293 cells were produced that stably express a HaloTag-ActA fusion protein (“HEK293-HaloTag”) which ensures fusion protein localization to the outer mitochondrial membrane with exposure to the cytosol. The HaloTag protein rapidly reacts covalently with short chloroalkane-containing compounds, occupying the active site and preventing further reactions. The chloroalkane penetration assay utilizes this reactivity in a pulse-chase assay where cells are first treated with cCPPs-chloroalkane of interest, followed by incubation with cell-permeable fluorescent dye tetramethylrhodamine-chloroalkane (“TMR-ct”). If cCPPs have gained access to the cytosol, they will react with HaloTag and prevent it from reacting with TMR-ct. The relative cell-penetrating efficiency of compounds can therefore be determined by their ability to reduce cellular TMR fluorescence after a washout period with this value expressed as IC50.
Cell penetrating peptides. Cell penetrating peptides having the sequences indicated in Table 13 (below) were functionalized on the lysine residue with a chloroalkane tag of the sequence N^1-(2-(2-((5-chlorohexyl)oxy)ethoxy)ethyl-N^4-(2-(2-(2-oxoethoxy)ethoxy)ethyl)succinamide (referred to as “chloroalkane” in Table 13), purified, and prepared as stock solutions in DMSO with concentration determined by A280 or weight as applicable.
Determination of cell-penetrating efficiency. Compounds to be evaluated were prepared as stock solutions in DMSO and diluted in PBS before addition to HEK293-HaloTag ells as a serial dilution from 30 μM to 0.5 nM. Cells were incubated with the compounds at a given concentration for 24 h in the presence of FBS at 37° C. After incubation, cells were washed thoroughly with PBS and to the cells was added fresh, serum-free media containing 5 μM TMR-ct and incubated for 30 min. After incubation, the cells were washed and incubated in fresh media to wash-out any unreacted TMR-ct. Cells were then imaged and quantified for cellular fluorescence using high-content imaging. Values are normalized to vehicle-treated cells and an IC50 calculated using a 4-parameter logarithmic fit in GraphPad PRISM v.8.

[2] = test system: exon 44 of human dystrophin mRNA; experiment: Exon 44 skipping by RT-PCR in hDMD mice; format: in vivo; settings: hDMD mice, 5 days
Experimental: The hemizygous mice were further genotyped at Transnetyx. All groups were dosed 5 mL/kg per animal by intravenous (iv) injection and sacrificed after 5 days post injection. All animals were euthanized by CO2 asphyxiation followed by terminal blood collection via cardiac puncture. Maximum obtainable volume of whole blood was collected into lithium heparin tubes and processed to plasma. A portion of plasma was analyzed for clinical chemistries by the Testing Facility (IDEXX) and the rest stored frozen at nominally −70° C. […] Animals were age matched and assigned into eight (8) treatment groups according to Table 15. […] All animals survived until their scheduled euthanasia time. Tissues were collected per protocol. The amount of AC and a cCPP-AC in various tissue samples was quantified by LC-MS. Exon skipping in different tissues were analyzed by RT-PCR and the quantification of exon 44 correction.
Exon Skipping Analysis by RT-PCR: hDMD mice and NHP express full-length human dystrophin mRNA. The delivery of AC can alter the splicing and result in a shortened dystrophin mRNA after exon 44 skipping. The tissues were homogenized using 1 mL of RLT lysis buffer (Qiagen, Cat #79216). The detection of splicing correction process was measured by RT-PCR where extracted RNAs from tissues were first reverse-transcribed into cDNA and further analyzed by one step RT-PCR using the following primer set: forward primer 5′-[…]-3′ (SEQ ID NO: 262) and reverse primer 5′-[…]-3′ (SEQ ID NO: 263). […] Quantification of the relative intensity of the bands corresponding to skipped and unskipped transcripts were performed to assess AC-induced exon-44-skipping efficacy. The degree (percentage) of splicing correction detected by RT-PCR was calculated using the following equation: % correction=(intensity of 493 bp fragment band)/(intensity of 493 bp fragment band+intensity of 641 bp fragment band).

[3] = MDX mice, single IV 20 mg/kg, day 5

`N=C(N)NCCC[C@H]1NC(=O)[C@H](CCCNC(N)=O)NC(=O)[C@@H](CCCNC(=N)N)NC(=O)[C@H](CCCNC(N)=O)NC(=O)[C@H](Cc2ccc3ccccc3c2)NC(=O)[C@@H](Cc2ccccc2)NC(=O)[C@H](Cc2ccccc2)NC(=O)[C@H](CCC(=O)NCCOCCOCCOCCOCCC(=O)N[C@@H](CCCCNC(=O)COCCOCCNC(=O)CCC(=O)NCCOCCOCCCCCCCl)C(N)=O)NC1=O` [Compound 1a, cyclo(FfΦ-Cit-r-Cit-rQ)-PEG4-K-NH2] (cyclo([2Nal][Cit][dR][Cit][dR]E([PEG4-X1])F[dF])) showed an IC50 [1] of 0.849 µM.
`N=C(N)NCCC[C@H]1NC(=O)[C@H](CC2CCNCC2)NC(=O)[C@@H](CCCNC(=N)N)NC(=O)[C@H](CC2CCNCC2)NC(=O)[C@H](Cc2ccc3ccccc3c2)NC(=O)[C@@H](Cc2ccccc2)NC(=O)[C@H](Cc2ccccc2)NC(=O)[C@H](CCC(=O)NCCOCCOCCOCCOCCC(=O)N[C@@H](CCCCNC(=O)COCCOCCNC(=O)CCC(=O)NCCOCCOCCCCCCCl)C(N)=O)NC1=O` [Compound 2a, cyclo(FfΦ-Pia-r-Pia-rQ)-PEG4-K-NH2] (cyclo([2Nal][Ala(piperidin-4-yl)][dR][Ala(piperidin-4-yl)][dR]E([PEG4-X1])F[dF])) was tested, and the IC50 [1] was 0.881 µM.
Compound `CN(C)CCCC[C@@H]1NC(=O)[C@H](Cc2ccc3ccccc3c2)NC(=O)[C@@H](Cc2ccccc2)NC(=O)[C@H](Cc2ccccc2)NC(=O)[C@H](CCC(=O)NCCOCCOCCOCCOCCC(=O)N[C@@H](CCCCNC(=O)COCCOCCNC(=O)CCC(=O)NCCOCCOCCCCCCCl)C(N)=O)NC(=O)[C@@H](CCCNC(=N)N)NC(=O)[C@H](CCCCN(C)C)NC(=O)[C@@H](CCCNC(=N)N)NC1=O` [Compound 3a, cyclo(FfΦ-Dml-r-Dml-rQ)-PEG4-K-NH2] (cyclo(F[dF][2Nal][Lys(Me2)][dR][Lys(Me2)][dR]E([PEG4-X1]))) has an IC50 [1] of 0.932 µM.
`N=C(N)NCCC[C@H]1NC(=O)[C@H](CNC(=N)N)NC(=O)[C@@H](CCCNC(=N)N)NC(=O)[C@H](CNC(=N)N)NC(=O)[C@H](Cc2ccc3ccccc3c2)NC(=O)[C@@H](Cc2ccccc2)NC(=O)[C@H](Cc2ccccc2)NC(=O)[C@H](CCC(=O)NCCOCCOCCOCCOCCC(=O)N[C@@H](CCCCNC(=O)COCCOCCNC(=O)CCC(=O)NCCOCCOCCCCCCCl)C(N)=O)NC1=O` [Compound A, cyclo(FfΦ-Agp-r-Agp-rQ)-PEG4-K-NH2] (cyclo([2Nal][Agp][dR][Agp][dR]E([PEG4-X1])F[dF])) showed an IC50 [1] of 0.626 µM.
In the case of `N=C(N)NCCC[C@H]1NC(=O)[C@H](CCNC(=N)N)NC(=O)[C@@H](CCCNC(=N)N)NC(=O)[C@H](CCNC(=N)N)NC(=O)[C@H](Cc2ccc3ccccc3c2)NC(=O)[C@@H](Cc2ccccc2)NC(=O)[C@H](Cc2ccccc2)NC(=O)[C@H](CCC(=O)NCCOCCOCCOCCOCCC(=O)N[C@@H](CCCCNC(=O)COCCOCCNC(=O)CCC(=O)NCCOCCOCCCCCCCl)C(N)=O)NC1=O` [Compound B, cyclo(FfΦ-Agb-r-Agb-rQ)-PEG4-K-NH2] (cyclo([2Nal][Agb][dR][Agb][dR]E([PEG4-X1])F[dF])), the IC50 [1] is reported as 0.695 µM.
For `N=C(N)NCCCC[C@@H]1NC(=O)[C@H](Cc2ccc3ccccc3c2)NC(=O)[C@@H](Cc2ccccc2)NC(=O)[C@H](Cc2ccccc2)NC(=O)[C@H](CCC(=O)NCCOCCOCCOCCOCCC(=O)N[C@@H](CCCCNC(=O)COCCOCCNC(=O)CCC(=O)NCCOCCOCCCCCCCl)C(N)=O)NC(=O)[C@@H](CCCNC(=N)N)NC(=O)[C@H](CCCCNC(=N)N)NC(=O)[C@@H](CCCNC(=N)N)NC1=O` [Compound C, cyclo(FfΦ-hR-r-hR-rQ)-PEG4-K-NH2] (cyclo([2Nal][hArg][dR][hArg][dR]E([PEG4-X1])F[dF])), the IC50 [1] was 0.786 µM.
Compound `N=C(N)NCCC[C@H]1NC(=O)[C@H](Cc2ccc(NC(=N)N)cc2)NC(=O)[C@@H](CCCNC(=N)N)NC(=O)[C@H](Cc2ccc(NC(=N)N)cc2)NC(=O)[C@H](Cc2ccc3ccccc3c2)NC(=O)[C@@H](Cc2ccccc2)NC(=O)[C@H](Cc2ccccc2)NC(=O)[C@H](CCC(=O)NCCOCCOCCOCCOCCC(=O)N[C@@H](CCCCNC(=O)COCCOCCNC(=O)CCC(=O)NCCOCCOCCCCCCCl)C(N)=O)NC1=O` [Compound D, cyclo(FfΦ-4gp-r-4gp-rQ)-PEG4-K-NH2] (cyclo([2Nal][Phe(4-guanidino)][dR][Phe(4-guanidino)][dR]E([PEG4-X1])F[dF])) has an IC50 [1] of 0.695 µM.
`CCOCc1nc2c(N)nc3ccccc3c2n1CC(C)(C)O` [Compound R848, reference compound] was tested, and the IRF5 protein expression (IRF5 protein) was “significantly increases IRF5 Protein expression”.
In the case of `N=C(N)NCCC[C@@H]1NC(=O)[C@H](Cc2ccc3ccccc3c2)NC(=O)[C@@H](Cc2ccccc2)NC(=O)[C@H](Cc2ccccc2)NC(=O)[C@H](CCC(=O)NCCOCCOCCOCCOCCC(=O)N[C@@H](CCCCNC(=O)COCCOCCNC(=O)CCC(=O)NCCOCCOCCCCCCCl)C(N)=O)NC(=O)[C@@H](CCCNC(=N)N)NC(=O)[C@H](CCCNC(=N)N)NC(=O)[C@@H](CCCNC(=N)N)NC1=O` [EEV12, cyclo(FfΦRrRrQ)-PEG4-K(chloroalkane)-NH2, reference compound] (cyclo([2Nal]R[dR]R[dR]E([PEG4-X1])F[dF])), the IC50 [1] is reported as 0.792 µM.
For “Ac-KBK-AEEA-K(cyclo[FGFGRGRQ])-AEEA-K(N3)-NH2 [EEV-PMO-MDX-5]”, the “exon skipping in heart vs diaphragm, tibialis anterior, triceps” value (from here on “exon skipping in heart vs diaphragm”) (exon 23 of DMD; mouse, in vivo, iv, 20 mg/kg) was “a lower level of exon skipping in heart tissue”.
In the case of “Ac-PKKKRKV-AEEA-K(cyclo[FGFGRGRQ])-AEEA-K(N3)-NH2 [EEV-PMO-MDX-4]”, the “exon skipping in heart vs diaphragm” value (exon 23 of DMD; [3]) is reported as “a lower level of exon skipping in heart tissue”.
For “Ac-PKKKRKV-AEEA-K(cyclo[FGFGRGRQ])-PEG12-OH [EEV-PMO-IRF5-1]”, the “IRF-5 protein expression compared to cells stimulated with R848” value (IRF5 protein; RAW 264.7 cells, all tested concentrations) was “significant reduction in IRF-5 protein expression” and the IRF5 protein levels (IRF5 protein; mouse macrophage cells, 30 μM, 10 μM and 3 μM) was “statistically significant reduction of IRF5 protein levels”.
For “Ac-PKKKRKV-AEEA-K(cyclo[FfFGRGRQ])-AEEA-K(N3)-NH2 [EEV-PMO-MDX-7]”, the “exon skipping in heart vs diaphragm” value (exon 23 of DMD; [3]) was “a lower level of exon skipping in heart tissue”.
“Ac-PKKKRKV-AEEA-K(cyclo[GfFGrGrQ])-AEEA-K(N3)-NH2 [EEV-PMO-MDX-6]” was tested, and the “exon skipping in heart vs diaphragm” value (exon 23 of DMD; [3]) was “a lower level of exon skipping in heart tissue”.
Work on “Ac-PKKKRKV-AEEA-K(cyclo[GfFGrGrQ])-PEG12-OH [EEV-PMO-DMD44-2]” yielded an exon skipping ([2]; 10 mpk IV, Diaphragm) of 14%, an exon skipping ([2]; 10 mpk IV, TiA) of 22% and an exon skipping ([2]; 10 mpk IV, Triceps) of 17%. For the same compound, the exon skipping ([2]; 10 mpk IV, heart) was 0%, the exon skipping ([2]; 20 mpk IV, Diaphragm) was 35% and the exon skipping ([2]; 20 mpk IV, TiA) was 58%. It also gave an exon skipping ([2]; 20 mpk IV, Triceps) of 44, an exon skipping ([2]; 20 mpk IV, heart) of 2% and an exon skipping ([2]; 40 mpk IV, Diaphragm) of 83%. It also gave an exon skipping ([2]; 40 mpk IV, TiA) of 95%, an exon skipping ([2]; 40 mpk IV, Triceps) of 92% and an exon skipping ([2]; 40 mpk IV, heart) of 17%. The exon skipping ([2]; 80 mpk IV, Diaphragm) was 99%, the exon skipping ([2]; 80 mpk IV, TiA) was 99% and the exon skipping ([2]; 80 mpk IV, Triceps) was 98%. The exon skipping ([2]; 80 mpk IV, heart) was 79% and the “minimum efficacious dose in the heart” value ([2]; IV) was 40 mpk.

— patent US20260199493A1 (priority 2021, published 2026)
